Test results as given in patent publication US20030186352A1, “Apicomplexan chorismate synthase sequences and an inhibitor of the shikimate pathway” (priority 1998, published 2003).
In brackets after ≈: the same amount, converted by molar mass. Read-outs that look alike come from different tables or passages of the source.

Columns and labels:
[1] = tested on: T. gondii tachyzoites (RH strain); experiment: T. gondii growth inhibition in HFF monolayers, tritiated uracil uptake; format: cell-based, Toxoplasma gondii
Protocol: The improvements are based on microscopic visual imspection of infected and inhibitor treated cultures, and on quantitation of nucleic acid synthesis of the parasite by measure intake of ^3H uracil onto the parasite's nucleic acid. Uracil is not utilized by mammalian cells. […] Only the RH strain tachyzoites, cultured for up to 72 hours, had been used in previously reported assays. The use of Me49, Ptg, and R5 mutant are unique aspects of the methods used in these assays in this invention.
In these assays toxicity of a candidate inhibitor was assessed by its ability to prevent growth of human foreskin fibroblasts (HFF) after 4 days and after 8 days as measured by tritiated thymidine uptake and microscopic evaluation. Confluent monolayers of HFF were infected with tachyzoites and bradyzoites. Inhibitor was added one hour later. Non-toxic doses were used in parasite growth inhibition assays. Parasite growth was measured by ability to incorporate tritiated uracil during the last 18 hours of culture.
First the toxicity of gabaculine was assessed by its ability to prevent growth of human foreskin fibroblasts (HFF) as measured by ^3H-thymidine uptake and microscopic evaluation. Non-toxic doses were used in parasite growth inhibition assays. in vitro parasite growth inhibition assays included confluent monolayers of HFF infected with tachyzoites (RH) or mutant Me49 (R5). Gabaculine was added 1 hour later. Parasite growth was measured by the ability to incorporate 3H-uracil during the last 18 hours of culture. In addition, parasite growth was evaluated microscopically in Giemsa stained slides.
Confluent monolayers of HFF cells, grown in 96-well plates are infected with T. gondii tachyzoites of the RH strain and serial dilutions of anti-microbial compound are applied 1 hour later. T. gondii growth is assessed in these cultures by their ability to incorporate tritiated uracil (2.5 μCi/well) added during the last 18 hours of culture. After harvesting cells with an automatic cell harvester, uracil incorporation is measured by liquid scintillation.

[2] = tested on: W2 clone of Plasmodium falciparum; experiment: P. falciparum in vitro growth assay (Milhous et al.), W2 clone; format: cell-based; details: for IC50 / IC90: Plasmodium falciparum
[3] = tested on: D6 clone of Plasmodium falciparum; experiment: P. falciparum in vitro growth assay (Milhous et al.), D6 clone; format: cell-based; details: for IC50 / IC90: Plasmodium falciparum
C. parvum = C. parvum infection of MDBKF5D2 cell monolayers, immunofluorescence assay at 48 hours; format: cell-based, Cryptosporidium parvum
Protocol: C. parvum oocysts at 50,000/well were incubated at 37° C. (8% CO2) on confluent MDBKF5D2 cell monolayers in 96 well microtiter plates with the following concentrations of each drug. […] The level of infection of each well was determined and analyzed by an immunofluorescence assay at 48 hours using an antibody to C. parvum sporozoites made in rabbits at a concentration of 0.1%. Fluorescein-conjugated goat anti-rabbit antibody was used at a concentration of 1%.
C. parvum oocysts at 50,000/well were incubated with each drug (PRM=paromomycin which is the positive control, NPMG, gabaculine, SHAM, 8-hydroxyquinoline) at 37° C. (8% carbon dioxide) on confluent MDBKF5D2 cell monolayers in 96 well microtiter plates. The level of infection of each well was determined and analyzed by an immunofluorescence assay at 48 hours using as an antibody C. parvum sporozoite rabbit anti-serum (0.1%), and using fluorescein-conjugated goat anti-rabbit antibody (1%). Data are expressed as mean parasite count/field when 16 fields counted at 10× magnification “s.d. of the mean” (FIG. 6).

fibroblasts = experiment: TSA-DCA experiments: effect on host cells (tritiated thymidine uptake, non-confluent fibroblasts); format: cell-based, human
Protocol: (§1) Effects of inhibitors of T. gondii in vitro were assessed after 1, 4 or 5 days in tissue culture using fibroblasts infected with […] tachyzoites of T. gondii. Effects in the fibroblasts were scored. Compounds used were TSA-DCA, TSA-Na+, and DCA at various concentrations ranging up to 1 mM. Uptake of ^3H uracil (utilized by T. gondii but not by mammalian cells), and visual appearance of T. gondii in these cells were used to assess parasite growth. Effect of compounds on host cells was studied by microscopic examination and by measuring uptake of tritiated thymidine utilizing a non-confluent monolayer of fibroblasts.
(§2) The results in table 5 show the greatest inhibitory effect of TSA-DCA and some effect of DCA at a higher concentration. […] “T50” is the concentration at which 50% of the cells were killed (T=toxic) and so forth. […] Analysis was uptake of H3 thymidine. Confirmation was by visual inspection of microscope slides (e.g. FIGS. 15 A-D).

T. gondii tachyzoites = experiment: TSA-DCA experiments: T. gondii growth in fibroblasts (3H uracil uptake, visual appearance); format: cell-based, Toxoplasma gondii
Protocol: as §1, §2

T. gondii = T. gondii infection in mice: manifestations, parasitemia, brain cysts; design: species or system Toxoplasma gondii
Text: Cyst numbers present in a suspension of brain are enumerated, or cyst numbers in formalin fixed paraffin embedded sections are quantitated.
In this competitive PCR method the T. gondii B1 gene is amplified by PCR in the presence of a construct which produces a product slightly smaller than the wild type B1 gene. The amount of construct can be quantitated to semiquantitate the amount of the competing wild type gene.
A method to measure the amount of parasitemia in mouse peripheral blood has been developed. Briefly, the target for PCR amplification is the 35 fold repetitive B1 gene of T. gondii and the amplification was performed using primers previously reported. […] Competitive PCR was performed by spiking individual reactions (containing equal amounts of genomic DNA) with a dilution of the internal standard. Since this internal control contains the same primer template sequences, it competes with the B1 gene of T. gondii for primer binding and amplification. The sensitivity of the PCR reaction in each sample can be monitored. Following competitive PCR, the PCR products are distinguished by size and the amount of products generated by the target and internal standard can be compared on a gel. The amount of competitor DNA yielding equal amounts of products gives the initial amount of target gene.

[4] = W2 clone (first value of each pair)
[5] = D6 clone (second value of each pair)
[6] = exp. 5/15, day 4, range 12-100 (200) uM, no visual
[7] = exp. 5/29, day 4, range 125-1000 (2000) uM, no visual
[8] = exp. 8/23, day 1, range 250-2000 uM
[9] = W2 clone (first value of each pair), read-out: Concentrations of other compounds that inhibited these clones in this assay
[10] = D6 clone (second value of each pair), read-out: Concentrations of other compounds that inhibited these clones in this assay

## O=C(O)CC[N+](=O)[O-] [3-NPA, 3-Nitropropionic acid]
[1]; 3-NPA 0.006 mg ml, 4-day assay, medium about 30,000 CPM
  restriction of CPM (tritiated uracil incorporation): around 60%
[2]; W2
  IC50: 3.3 µg/mL (≈ 27.7 µM)
  IC90: 4.61 µg/mL (≈ 38.7 µM)
[3]; D6
  IC50: 2820 ng/mL (≈ 23.7 µM)
  IC90: 2.82 µg/mL (≈ 23.7 µM)
C. parvum
  inhibition of C. parvum: inhibited

## Oc1cccc2cccnc12 [8-OH-quinoline, 8-hydroxyquinoline]
[1]
  effect against T. gondii: effective against T. gondii
[2]; W2
  IC50: 1.63 µg/mL (≈ 11.2 µM)
  IC90: 4.52 µg/mL (≈ 31.1 µM)
[3]; D6
  IC50: 1200 ng/mL (≈ 8.29 µM)
  IC90: 1.88 µg/mL (≈ 13 µM)
C. parvum; 8-OH-quinoline 0.1 μg/ml, media alone ~1800
  approximate 95% Cl count (mean parasite count per field): ~1300 count/field
C. parvum; 8-OH-quinoline 1 μg/ml, media alone ~1800
  approximate 95% Cl count (mean parasite count per field): ~1100 count/field
C. parvum; 8-OH-quinoline 10 μg/ml, media alone ~1800
  approximate 95% Cl count (mean parasite count per field): ~900 count/field
C. parvum; 8-OH-quinoline 100 μg/ml, media alone ~1800
  approximate 95% Cl count (mean parasite count per field): ~300 count/field

## O=C1C(O)=C([C@H]2CC[C@H](c3ccc(Cl)cc3)CC2)C(=O)c2ccccc21 [Atovaquovone]
[2]; [4]
  Concentrations of other compounds that inhibited these clones in this assay: 0.13 ng/mL
[3]; [5]
  Concentrations of other compounds that inhibited these clones in this assay: 0.12 ng/mL

## CCN(CC)CCCC(C)Nc1ccnc2cc(Cl)ccc12 (stereo not drawn) [Chloroquin]
[2]; [4]
  Concentrations of other compounds that inhibited these clones in this assay: 40.86 ng/mL
[3]; [5]
  Concentrations of other compounds that inhibited these clones in this assay: 2.88 ng/mL

## C1CCC(NC2CCCCC2)CC1 [DCA, dicyclohexylamine]
fibroblasts; [6]
  T50: 50 µM
  T90: none
fibroblasts; [7]
  T50: none
  T90: 2000 µM
fibroblasts; [8]
  T50: 1000 µM
  T90: none
T. gondii tachyzoites; Toxoplasma gondii, Fibroblast, 24 h
  IC50: 500 µM
T. gondii tachyzoites; day 1 of culture
  IC75: 1000 µM
T. gondii tachyzoites; [6]
  IC7 5-80: none
  IC50: none
T. gondii tachyzoites; [7]
  IC7 5-80: none
  IC50: none
T. gondii tachyzoites; [8]
  IC7 5-80: 250 to 500 µM
T. gondii tachyzoites; exp. 9/8, day 1, range 125-1000 uM
  IC7 5-80: 1000 µM

## CCCCN(CCCC)CCC(O)c1cc2c(Cl)cc(Cl)cc2c2cc(C(F)(F)F)ccc12 (stereo not drawn) [HAL]
[2]; [4]
  Concentrations of other compounds that inhibited these clones in this assay: 0.33 ng/mL
[3]; [5]
  Concentrations of other compounds that inhibited these clones in this assay: 0.51 ng/mL

## NC[C@@H]1O[C@H](O[C@H]2[C@@H](O)[C@H](O[C@@H]3[C@@H](O)[C@H](N)C[C@H](N)[C@H]3O[C@H]3O[C@H](CO)[C@@H](O)[C@H](O)[C@H]3N)O[C@@H]2CO)[C@H](N)[C@@H](O)[C@@H]1O [PRM]
C. parvum; paromomycin with ethanol (positive control), media and ethanol ~1200
  approximate 95% Cl count (mean parasite count per field): ~100 count/field
C. parvum; paromomycin without ethanol (positive control), media alone ~1800
  approximate 95% Cl count (mean parasite count per field): ~200 count/field

## CCc1nc(N)nc(N)c1-c1ccc(Cl)cc1 [Pyrimethamine]
[2]; [9]
  IC50: 0.0821 µg/mL (≈ 0.33 µM)
[3]; [10]
  IC50: 0.05 ng/mL (≈ 0.000201 µM)

## C=C[C@H]1C[N@@]2CC[C@H]1C[C@H]2[C@H](O)c1ccnc2ccc(OC)cc12 [Quinine]
[2]; [9]
  IC50: 0.0386 µg/mL (≈ 0.119 µM)
[3]; [10]
  IC50: 4.41 ng/mL (≈ 0.0136 µM)

## O=C(NO)c1ccccc1O [SHAM, Salicylhydroxamic acid]
[1]
  effect against T. gondii: effective against T. gondii
[1]; SHAM 0.16 μg/ml, 4 day assay, medium around 54,000 CPM
  restriction of CPM (tritiated uracil incorporation): around 50%
[1]; SHAM 0.78 μg/ml, 4 days, medium around 54,000, no RH around 1,000 CPM
  counts (tritiated uracil incorporation): about 8,000 CPM
C. parvum; SHAM 0.1 μg/ml, 0.2% ETOH, media and ethanol ~1200
  approximate 95% Cl count (mean parasite count per field): ~1200 count/field
C. parvum; SHAM 1 μg/ml, 0.2% ETOH, media and ethanol ~1200
  approximate 95% Cl count (mean parasite count per field): ~1100 count/field
C. parvum; SHAM 10 μg/ml, 0.2% ETOH, media and ethanol ~1200
  approximate 95% Cl count (mean parasite count per field): ~1100 count/field
C. parvum; SHAM 100 μg/ml, 0.2% ETOH, media and ethanol ~1200
  approximate 95% Cl count (mean parasite count per field): ~400 count/field
T. gondii
  parasitemia and number of brain cysts in vivo: affects parasitemia and number of brain cysts

## Nc1ccc(S(=O)(=O)Nc2ncccn2)cc1 [Sulfadiazine]
[1]; sulphadiazine 1.56 μmg/ml, 4 days, medium about 36,000 CPM
  reduction of growth of T. gondii: about 60%
T. gondii
  manifestations of infection in vivo: reduced manifestations of infection
